The values that follow are results of earlier work, collected in patent publication US20160114057A1, “MODULAR PROTEIN DRUG CONJUGATE THERAPEUTIC” (ZYMEWORKS INC., priority 2013, published 2016).

For data set [1] the following is noted: KB-31 (melanoma).
The conditions of data set [2]: human, in vivo.
The test system of data set [3] is NCI tumor panel (60 cell line). The conditions noted are these: for pIC50: range over cell lines.
The conditions of data set [4]: in vivo.
Experiment in data set [5]: not given
The source holds these as a separate data set.

pIC50: −log10 of the molar value. Several values for one entry are separate records, joined by “and”; a condition that tells them apart may be missing. Equal values may be shown once. Read-outs that look alike come from different tables or passages of the source. *1 amine or outer side, *2 acyl side, *3 side chain or, on linkers, in order; H or OH if unused. Where a SMILES comes first, the peptide text is derived from it. Bridges are numbered along the chain shown (N, C = ends). [ ]: non-standard residue; d: D form. The star is where a group is joined. X2 = CC[C@@H](C)C[C@H](N[*:1])C(=O)[*:2]; X1 = CC[C@H](C)CC(N[*:1])C(=O)[*:2]; d(aThr) = C[C@@H](O)[C@@H](N)C(=O)O; NMe2Val = CC(C)[C@@H](C(=O)*)N(C)C; NMeT = CN[C@H](C(=O)O)[C@@H](C)O; Suc = O=C(CCC(=O)[*:2])[*:1]; NMeV = CN[C@H](C(=O)O)C(C)C; NHBn = c1ccc(CN*)cc1; Dha = C=C(N)C(=O)O

Take `C=C1NC(=O)[C@H]([C@@H](C)CC)NC(=O)[C@@H]2CSSC[C@H](NC(=O)CCC(=O)O)C(=O)N[C@H](Cc3ccccc3)C(=O)N[C@H](C)C(=O)NC(C[C@@H](C)CC)C(=O)N[C@@H](C(=O)N[C@H](Cc3ccccc3)C(=O)N3CCC[C@H]3C(=O)N2)[C@@H](C)OC(=O)[C@H](CO)NC(=O)[C@H]([C@@H](C)OC)N(C)C(=O)[C@@H](C(C)C)NC(=O)[C@H](C[C@H](C)CC)NC1=O` (stereo partly drawn) [Vitilevuamide] (Suc-C[dF][dA][X1][d(aThr)][dF]PCI[Dha][X2][dV][NMeT](Me)S; disulfide 1-8; ester 5-C): the negative-log IC50 (pIC50) in the data set with various tumor cell lines (panel of tumor cell lines HCT116, A549, SK-MEL-5, A498 cells, read-out: IC50) was 6.51 to 8.22. On to `CC[C@H](C)[C@@H]([C@@H](CC(=O)N1CCC[C@H]1[C@H](OC)[C@@H](C)C(=O)N[C@@H](Cc1ccccc1)c1nccs1)OC)N(C)C(=O)[C@@H](NC(=O)[C@H](C(C)C)N(C)C)C(C)C` [Dolastatin-10], for which the concentration with myelotoxicity result (in vivo) is listed as “greater than 0.3 pM)”. For the compound `C/C(=C\c1csc(C)n1)[C@@H]1C[C@@H]2O[C@@H]2CCC[C@H](C)[C@H](O)[C@@H](C)C(=O)C(C)(C)[C@@H](O)CC(=O)O1` [Epothilone A], the negative logarithm of the IC50 (pIC50) in the data set with HCT-116 is 8.49; in the data set with MCF-7 (breast), 8.82; in the data set on MCF-7/ADR, 7.57; in [1], 8.68. Consider `COc1ccc(C[C@H]2NC(=O)/C=C/C[C@@H]([C@H](C)[C@@H](O)[C@@H](Cl)c3ccccc3)OC(=O)[C@H](CC(C)C)OC(=O)[C@H](C)CNC2=O)cc1Cl` [Cryptophycin 8], for which, in the data set with various tumor cell lines, the “activity in cell culture (in words)” value is “broad spectrum”.

Consider `C=C(C)[C@@H]1NC(=O)[C@@H](NC)[C@@H](O)c2cc(Cl)c(O)c(c2)O[C@](C)(CC)[C@@H](C(=O)N2CC=C[C@H]2C(=O)N/C(C(=O)N/C(=C/C(=O)O)C(=O)O)=C(\C)CC)NC1=O` [Phomopsin A], for which the “activity in cell culture (in words)” value in the data set with various tumor cell lines is given as “potent anticancer”. For `C/C(=C\c1csc(C)n1)[C@@H]1C[C@@H]2O[C@]2(C)CCC[C@H](C)[C@H](O)[C@@H](C)C(=O)C(C)(C)[C@@H](O)CC(=O)N1` [BMS-247550], the “Toxicity (in words)” value is given as “sever toxicity”. In addition, the “clinical responses (in words)” value in data set [2] is reported as “tumor (objective”.

Turning to `CC(C)[C@H](NC(=O)[C@H](C(C)C)N(C)C)C(=O)N(C)[C@H](C(=O)N1CCC[C@H]1C(=O)N1CCC[C@H]1C(=O)NCc1ccccc1)C(C)C` [Cemadotin] (NMe2Val-V[NMeV]PP-NHBn), the “Toxicity (in words)” value is reported as “hypertension,”. In addition, the “activity in NCI tumor panel (in words)” value in data set [3] is “active in breast,”.

For `COc1ccc(C[C@H]2NC(=O)/C=C/C[C@@H]([C@H](C)[C@H]3O[C@@H]3c3ccccc3)OC(=O)[C@H](CC(C)C)OC(=O)CCNC2=O)cc1` [Arenastatin A analogs], in the data set on KB (KB (nasopharyngeal)), the “Activity (IC50)” value was 0.005 ng/mL. Also, the pIC50 in the data set on KB (KB, read-out: Activity (IC50)) is 8.06.

`COc1ccc(C[C@H]2NC(=O)/C=C/C[C@@H]([C@H](C)[C@H]3O[C@@H]3c3ccccc3)OC(=O)[C@H](CC(C)C)OC(=O)C(C)(C)CNC2=O)cc1Cl` [Cryptophycin analogs (including 52, 55 and others)]: the “activity against multi-drug/drug resistant cell lines (in words)” value with MDR cell lines is reported as “pM; active against”. In addition, the negative logarithm of the IC50 (pIC50) with various tumor cell lines (broad activity (lung, breast, colon, leukemia), read-out: IC50) is 10.40 to 11.70. `CCCC1C(=O)O[C@H](/C(C)=C/c2csc(C)n2)C[C@@H]2O[C@]2(C)CCC[C@H](C)[C@H](O)[C@@H](C)C(=O)C(C)(C)[C@H]1O` (stereo partly drawn) [ZK-EPO]: in the data set on MDR cell lines, the “activity against multi-drug/drug resistant cell lines (in words)” value was “active in drug”. With `CN[C@H](C(=O)N[C@H](C(=O)N(C)[C@H](/C=C(\C)C(=O)O)C(C)C)C(C)(C)C)C(C)(C)c1c[nH]c2ccccc12` [Hemiasterlins A & B and analogs], the negative-log IC50 (pIC50) in the data set on MCF-7 (breast) is 8.52 to 9.52. In addition, the IC50 in the data set on P388 is reported as 0.4 ng/mL P388. As to `COc1cc([C@@H]2c3cc4c(cc3[C@H](O)[C@H]3COC(=O)[C@H]23)OCO4)cc(OC)c1OC` [Podophyllotoxin], the “activity in cell culture (in words)” value in the data set with various tumor cell lines is recorded as “in μM range”. With `C/C(=C\c1csc(CN)n1)[C@@H]1C[C@@H]2O[C@]2(C)CCC[C@H](C)[C@H](O)[C@@H](C)C(=O)C(C)(C)[C@@H](O)CC(=O)O1` [BMS-310705], under “in vivo”, the “Toxicity (in words)” value is listed as “adverse events”. Also, in data set [4], the t1/2 is reported as 3.5 hrs; improved. Also, the negative logarithm of the IC50 (pIC50) in the data set on various tumor cell lines (broad activity, read-out: IC50) was 8.00 to 9.15. For `CC(=O)O[C@H]1C(=O)[C@@]2(C)[C@H]([C@H](OC(=O)c3ccccc3)[C@]3(O)C[C@H](OC(=O)[C@H](O)[C@@H](NC(=O)c4ccccc4)c4ccccc4)C(C)=C1C3(C)C)[C@]1(OC(C)=O)CO[C@@H]1C[C@@H]2O` [Taxol], for the setting “in vivo”, the “Toxicity (in words)” value is “severe toxicity”.

Take Didemnin B: the “Toxicity (in words)” value is given as “cardiotoxicity;”. In addition, the “activity against multi-drug/drug resistant cell lines (in words)” value in the data set with MDR cell lines is “Not potent against”. For the same compound, the MTD in data set [5] (in vivo) is on record as 6.3 mg/Kg; toxicity. In data set [4], the t1/2 entry was “cleared (t1/2 4.8 hrs”.

On to `CCCC1(O)C(O)C(C)C/C=C/C=C/C(CC(C)O)CCC2OC3(CCC(C)C(C(C)C(O)CC)O3)C(C)C(OC(=O)/C=C/C(C)C(O)C(C)C(O)C(OC3CCC(O)C(C)O3)C(O)C(O)C1O)C2C` (stereo not drawn) [IB-96212], for which, in the data set with P388, the IC50 is given as 0.1 P388 ng/mL.

For the compound `C=C1C[C@@H]2C[C@@H]3C[C@@H](O)C[C@@H](O3)c3coc(n3)/C=C/C[C@H]3O[C@@H](/C(C)=C/c4coc(C[C@]5(O)CC(OC)C[C@H]([C@H](O)/C=C(C)/C=C/C(C/C=C/Br)OC)O5)n4)[C@H](C)[C@@H](OC(=O)/C=C\C[C@@H](C1)O2)[C@H]3C` (stereo partly drawn) [Phorboxazole A], the pIC50 in data set [3] (NCI tumor panel) was 8.00 to 9.00. Turning to Epothilone D, the “Toxicity (in words)” value is “emesis and anemia;”. In addition, in the data set on HCT-116, the negative logarithm of the IC50 (pIC50) is 9.38. Also, in data set [4], the t1/2 entry is on record as “t1/2 of 5-10 hrs”. Further, the “activity in cell culture (in words)” value in the data set with various tumor cell lines is listed as “broad activity”. Besides, the pIC50 in [1] is 9.72. As to `CO[C@@H](/C(C)=C/C=C/C(C)=C/c1coc(C)n1)[C@@H](C)[C@@H]1C[C@H](O)[C@@]2(C)O[C@@H]2/C=C/[C@@H](C)[C@H]2C[C@H](CC(=O)O2)C[C@H]2O[C@H]2C(=O)O1` [Rhizoxin], the “Toxicity (in words)” value was “Rapid Drug”. Regarding `COc1cc2cc(c1Cl)N(C)C(=O)C[C@H](OC(=O)[C@H](C)N(C)C(C)=O)[C@]1(C)O[C@H]1[C@H](C)[C@@H]1C[C@@](O)(NC(=O)O1)[C@H](OC)/C=C/C=C(\C)C2` [Maytansine], the “Toxicity (in words)” value was “severe toxicity”. On to `C=C1C[C@@H]2CCO[C@H]3[C@@H]4O[C@H]5CC[C@H](CC(=O)O[C@@H]6[C@@H](C)[C@@H]7O[C@@H]8C[C@]9(C[C@@H]%10O[C@]%11(C[C@H](C)[C@@H]%12O[C@H](CC(=O)CCO)[C@H](O)C[C@@H]%12O%11)C[C@H](C)[C@@H]%10O9)O[C@@H]8C[C@@H]7O[C@H]6C[C@H]6O[C@@H](CC[C@@H]1O2)C[C@@H](C)C6=C)O[C@@H]5[C@@H]1OCC[C@H]3O[C@@H]14` [Isohomo-halichondrin B], for which the negative logarithm of the IC50 (pIC50) in data set [3] (NCI tumor panel) was roughly 10.00. In the case of `C=C(Cl)/C=C/[C@@H](O)CC(=C)C[C@H]1O[C@@H]2[C@H](C)[C@@H](OC(=O)C[C@@H]3C[C@H](OC(C)=O)C[C@@]4(C[C@@](C)(O)C[C@H](CC(=C)[C@@H](C)C(OC(C)=O)[C@H](C)C(=O)C[C@@H]5C[C@H](OC)C[C@@]6(C[C@@H](O)C[C@H](/C=C\CCC[C@H]7O[C@](O)(C[C@H](O)[C@H]7C)[C@H]2O)O6)O5)O4)O3)[C@@H]1O` (stereo partly drawn) [Spongistatin-1], the GI50 in data set [3] (NCI tumor panel, values or ends of the range over cell lines, read-out: GI50) is ≥ 0.025 nM and ≤ 0.035 nM.

As to `C=C(Cl)/C=C/[C@@H](O)CC(=C)C[C@H]1O[C@@H]2[C@H](C)[C@@H](OC(=O)C[C@@H]3C[C@H](OC(C)=O)C[C@@]4(C[C@@](C)(O)C[C@H](CC(=C)[C@@H](C)C(OC(C)=O)[C@H](C)C(=O)C[C@@H]5C[C@H](OC)C[C@@]6(C[C@@H](O)C[C@H](/C=C\CCC[C@H]7O[C@](O)(C[C@H](O)[C@H]7C)[C@H]2O)O6)O5)O4)O3)[C@@H]1O` (stereo partly drawn) [Spongistatins (1-9)], the “activity in NCI tumor panel (in words)” value in data set [3] is recorded as “Most potent”. Moreover, in data set [3] (NCI panel cell line, read-out: mean GI50), the 50% growth inhibitory concentration (GI50) is 0.1 nM. Consider `CO[C@]12C=C[C@](C)(O1)[C@@H](OC(=O)/C=C/c1cn(C)cn1)C[C@H]1C(C)=CC[C@H](C(C)C)[C@H]1/C=C\2CO[C@@H]1OC[C@@H](O)[C@@H](O)[C@@H]1OC(C)=O` [Eleutherobins], for which the “activity against multi-drug/drug resistant cell lines (in words)” value in the data set on MDR cell lines was “taxol; not effective”. Turning to `CCCCCCCCCCCCCCCC(=O)OC1CC(C(C)C(OC)/C(C)=C/C=C/C(C)=C/c2coc(C)n2)OC(=O)C2OC2CC2CC(=O)OC(C2)C(C)/C=C/C2OC21C` (stereo not drawn) [Palmitoylrhizoxin], the “Toxicity (in words)” value is reported as “binds LDL; less”. Take `CC/C=C\C=C/C(=O)N/C=C/CC1CC2CC(O)CC(Cc3cccc(O)c3C(=O)O1)O2` (stereo not drawn) [Apicularen A]: the IC50 entry in the data set with various tumor cell lines is given as “IC50's of 0.1 to 3 ng/mL”. In the case of `CC[C@H](C)[C@@H]([C@@H](CC(=O)N1CCC[C@H]1[C@H](OC)[C@@H](C)C(=O)NCCc1ccccc1)OC)N(C)C(=O)[C@@H](NC(=O)[C@H](C(C)C)N(C)C)C(C)C` [soblidotin], in data set [5] (IV), the MTD result is “MTD was 1.8 mg/Kg”. Besides, the inhibition in the data set on various tumor cell lines (cell culture: colon, melanoma, M5076 tumors, P388, dose not reported) is 75-85% inhibition. In the case of `C=CC[C@@H](CC/C(C)=C/C=C/CC/C=C\[C@@H]1CSC([C@@H]2C[C@@H]2C)=N1)OC` [Curacin A and analogs], the pIC50 in the data set with various tumor cell lines (broad activity (cancer cell lines), read-out: Activity (IC50)) is 7.54 to 9.00. Regarding Halichondrin B, the “Toxicity (in words)” value (in vivo) is reported as “myelotoxicity dose”.
